According to patent US20180044305A1, “3-SUBSTITUTED 1,3,4-OXADIAZOLE AND THIADIAZOLE COMPOUNDS AS IMMUNOMODULATORS” (AURIGENE DISCOVERY TECHNOLOGIES LIMITED, priority 2015, published 2018):

target: T1, Recombinant mouse PD-L1 (Mus musculus, UniProt Q9EP73); experiment: Rescue of mouse splenocyte proliferation in the presence of recombinant PD-L1 (CFSE proliferation assay); assay type: cell-based; details: compound at 100 nM; CFSE-labelled mouse splenocytes + anti-CD3/CD28 + PD-L1, 72 h; normalised to stimulated splenocyte proliferation as 100%
T1 construct: Fc (Fc chimera); purchased R&D Systems 1019-B7-100
T1 sequence (Q9EP73 with tags, fused parts or gaps limits assumed): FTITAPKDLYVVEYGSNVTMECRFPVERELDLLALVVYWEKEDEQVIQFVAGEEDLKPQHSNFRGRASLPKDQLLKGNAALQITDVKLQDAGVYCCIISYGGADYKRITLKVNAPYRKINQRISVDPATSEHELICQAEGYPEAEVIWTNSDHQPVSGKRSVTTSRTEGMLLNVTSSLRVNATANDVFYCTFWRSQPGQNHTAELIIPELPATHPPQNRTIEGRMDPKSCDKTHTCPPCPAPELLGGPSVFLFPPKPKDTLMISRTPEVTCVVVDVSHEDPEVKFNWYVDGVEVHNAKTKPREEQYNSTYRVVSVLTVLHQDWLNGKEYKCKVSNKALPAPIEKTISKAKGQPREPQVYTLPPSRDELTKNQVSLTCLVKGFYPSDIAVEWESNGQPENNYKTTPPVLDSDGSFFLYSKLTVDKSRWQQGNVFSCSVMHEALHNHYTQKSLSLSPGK
Description: Example 3: Rescue of Mouse Splenocyte Proliferation in the Presence of Recombinant PD-L1
Recombinant mouse PD-L1 (rm-PDL-1, cat no: 1019-B7-100; R&D Systems) were used as the source of PD-L1.
Mouse splenocytes harvested from 6-8 weeks old C57 BL6 mice; RPMI 1640 (GIBCO, Cat #11875); DMEM with high glucose (GIBCO, Cat #D6429); Fetal Bovine Serum [Hyclone, Cat #SH30071.03]; Penicillin (10000 unit/mL)-Streptomycin(10,000 μg/mL) Liquid (GIBCO, Cat #15140-122); MEM Sodium Pyruvate solution 100 mM (100×), Liquid (GIBCO, Cat #11360); Nonessential amino acid (GIBCO, Cat #11140); L-Glutamine (GIBCO, Cat #25030); Anti-CD3 antibody (eBiosciences—16-0032); Anti-CD28 antibody (eBiosciences—16-0281); ACK lysis buffer (1 mL) (GIBCO, Cat #-A10492); Histopaque (density—1.083 gm/mL) (SIGMA 10831); Trypan blue solution (SIGMA-T8154); 2 mL Norm Ject Luer Lock syringe-(Sigma 2014-12); 40 µm nylon cell strainer (BD FALCON 35230); Hemacytometer (Bright line-SIGMA Z359629); FACS Buffer (PBS/0.1% BSA): Phosphate Buffered Saline (PBS) pH 7.2 (HiMedia TS1006) with 0.1% Bovine Serum Albumin (BSA) (SIGMA A7050) and sodium azide (SIGMA 08591); 5 mM stock solution of CFSE: CFSE stock solution was prepared by diluting lyophilized CFSE with […] of Dimethyl sulfoxide (DMSO C2H6SO, SIGMA-D-5879) and aliquoted in to tubes for further use. Working concentrations were titrated from […] to 1 μM. (eBioscience—650850-85); 0.05% Trypsin and 0.02% EDTA (SIGMA 59417C); 96-well format ELISA plates (Corning CLS3390); BD FACS caliber (E6016); Recombinant mouse B7-H1/PDL1 Fc Chimera, (rm-PD-L1 cat no: 1019-B7-100).
Splenocytes harvested in a 50 mL falcon tube by mashing mouse spleen in a 40 µm cell strainer were further treated with 1 mL ACK lysis buffer for 5 min at room temperature. After washing with 9 mL of RPMI complete media, cells were re-suspended in 3 mL of 1×PBS in a 15 mL tube. 3 mL of Histopaque was added carefully to the bottom of the tube without disturbing overlaying splenocyte suspension. After centrifuging at 800×g for 20 min at room temperature, the opaque layer of splenocytes was collected carefully without disturbing/mixing the layers. Splenocytes were washed twice with cold 1×PBS followed by total cell counting using Trypan Blue exclusion method and used further for cell based assays.
Splenocytes were cultured in RPMI complete media (RPMI+10% fetal bovine serum+1 mM sodium pyruvate+10,000 units/mL penicillin and […] streptomycin) and maintained in a CO2 incubator with 5% CO2 at 37° C.
CFSE is a dye that passively diffuses into cells and binds to intracellular proteins. 1×10^6 cells/mL of harvested splenocytes were treated with […] of CFSE in pre-warmed 1×PBS/0.1% BSA solution for 10 min at 37° C. Excess CFSE was quenched using 5 volumes of ice-cold culture media to the cells and incubated on ice for 5 min. CFSE labelled splenocytes were further given three washes with ice cold complete RPMI media. […] Cells were harvested and washed thrice with ice cold FACS buffer and % proliferation was analysed by flow cytometry with 488 nm excitation and 521 nm emission filters.
Percent splenocyte proliferation was analysed using cell quest FACS program and percent rescue of splenocyte proliferation by compound was estimated after deduction of % background proliferation value and normalising to % stimulated splenocyte proliferation (positive control) as 100%. […]

Compound	Percent rescue of splenocyte proliferation (@100 nM) [%]
CC(O)[C@H](NC(=O)N[C@@H](CC(N)=O)c1nnc(-c2cnccn2)o1)C(=O)O (some centres unmarked) [Compound 13]	63
COc1ccccc1-c1nnc([C@H](CC(N)=O)NC(=O)N[C@@H](CCCCN)C(=O)O)o1 [Compound 11]	60
COc1ccccc1-c1nnc([C@H](CC(N)=O)NC(=O)N[C@H](C(=O)O)C(C)O)o1 (some centres unmarked) [Compound 16]	7
COc1ccccc1-c1nnc([C@H](CC(N)=O)NC(=O)N[C@@H](CCSC)C(=O)O)o1 [Compound 12]	15
CC(O)[C@H](NC(=O)N[C@H](c1nnc(-c2ccco2)o1)C(C)C)C(=O)O (some centres unmarked) [Compound 7]	28
